{"source": "patent US20140371262A1", "about": "“PREVENTIVE AND/OR THERAPEUTIC AGENT FOR THROMBOEMBOLISM IN THROMBOEMBOLISM PATIENT WITH SEVERE RENAL IMPAIRMENT” (Daiichi Sankyo Company, Limited, priority 2011, published 2014)", "key": {"[1]": {"system": "NVAF patient with severe renal impairment or with normal renal functions or mild renal impairment", "assay": "Phase-III trial targeting NVAF patient with severe renal impairment", "settings": "for Any bleeding events (adjudicated), incidence / Any bleeding events (adjudicated), number of subjects with events / Clinically relevant non-major bleeding events, incidence / Clinically relevant non-major bleeding events, number of subjects with events / Major bleeding events, incidence / Major bleeding events, number of subjects with events: 12 weeks"}, "[2]": {"system": "patients with moderate to-high-risk atrial fibrillation", "assay": "ENGAGE-AF TIMI-48 phase 3 study of edoxaban versus warfarin in atrial fibrillation"}, "[3]": {"assay": "Clinical pharmacological trial: pharmacokinetics after single-dose edoxaban 15 mg in individuals with renal functional impairment", "settings": "human, in vivo, 15 mg, single-dose 15 mg; for AUC(0-t): AUC0-24h Geometric least squares mean; for concentration at 24 h: C24h Geometric mean (plasma edoxaban concentration 24 hours after administration); for CL renal: CLR Geometric mean (renal clearance)", "description": "Edoxaban was subjected to a clinical trial targeting individuals with renal functional impairment, in which edoxaban was studied for its pharmacokinetics in the individuals with renal functional impairment (Non-patent literature 4). In this clinical trial, 15 mg of edoxaban was administered at a single dose to each patient in five groups differing in the severity of renal functional impairment."}, "[4]": {"settings": "Normal/MiRI (CLCR 50 mL/min or higher), high-dose 60 mg once a day"}, "[5]": {"settings": "Normal/MiRI (CLCR 50 mL/min or higher), low-dose 30 mg once a day"}, "[6]": {"settings": "SRI (CLCR 15 to <30 mL/min), edoxaban 15 mg once a day"}, "[7]": {"settings": "any of the treatment groups (SRI 15 mg, Normal/MiRI 30 mg, 60 mg)"}, "[8]": {"settings": "high-dose edoxaban (60 mg once daily, halved per criteria)"}, "[9]": {"settings": "low-dose edoxaban (30 mg once daily, halved per criteria)"}, "[10]": {"settings": "subgroup whose CLCR had become <30 mL/min during the trial, edoxaban 15 mg (N = 349), warfarin dose adjusted (N = 367)"}, "[11]": {"settings": "healthy adult (CLCR > 80 mL/min)"}, "[12]": {"settings": "mild renal impairment (50 ≦ CLCR ≦ 80 mL/min)"}, "[13]": {"settings": "moderate renal impairment (30 ≦ CLCR < 50 mL/min)"}, "[14]": {"settings": "severe renal impairment (CLCR < 30 mL/min, nondialyzed)"}}, "data": [{"smiles": "CN1CCc2nc(C(=O)N[C@@H]3C[C@@H](C(=O)N(C)C)CC[C@@H]3NC(=O)C(=O)Nc3ccc(Cl)cn3)sc2C1", "note": "[edoxaban, N^1-(5-chloropyridin-2-yl)-N^2-((1S,2R,4S)-4-[(dimethylamino)carbonyl]-2-{[(5-methyl-4,5,6,7-tetrahydrothiazolo[5,4-c]pyridin-2-yl)carbonyl]amino}cyclohexyl)ethanediamide]", "values": [{"measurement": "Bleeding compared to the low dose or high dose in patients with Normal/miRI", "setting": "[1]; 15 mg of edoxaban for 12 weeks in patients with SRI", "value": "did not result in a marked increase in bleeding"}, {"measurement": "Any bleeding events (adjudicated), incidence", "setting": "[1]; [4]", "value": 23.8, "unit": "%"}, {"measurement": "Any bleeding events (adjudicated), number of subjects with events", "setting": "[1]; [4]", "value": 5}, {"measurement": "Clinically relevant non-major bleeding events, incidence", "setting": "[1]; [4]", "value": 4.8, "unit": "%"}, {"measurement": "Clinically relevant non-major bleeding events, number of subjects with events", "setting": "[1]; [4]", "value": 1}, {"measurement": "Major bleeding events, incidence", "setting": "[1]; [4]", "value": 0.0, "unit": "%"}, {"measurement": "Major bleeding events, number of subjects with events", "setting": "[1]; [4]", "value": 0}, {"measurement": "Any bleeding events (adjudicated), incidence", "setting": "[1]; [5]", "value": 22.7, "unit": "%"}, {"measurement": "Any bleeding events (adjudicated), number of subjects with events", "setting": "[1]; [5]", "value": 5}, {"measurement": "Clinically relevant non-major bleeding events, incidence", "setting": "[1]; [5]", "value": 0, "unit": "%"}, {"measurement": "Clinically relevant non-major bleeding events, number of subjects with events", "setting": "[1]; [5]", "value": 0}, {"measurement": "Major bleeding events, incidence", "setting": "[1]; [5]", "value": 0.0, "unit": "%"}, {"measurement": "Major bleeding events, number of subjects with events", "setting": "[1]; [5]", "value": 0}, {"measurement": "Difference in the incidence of any adjudicated bleeding events", "setting": "[1]; SRI 15-mg edoxaban group vs Normal/MiRI low-dose (30-mg) or high-dose (60-mg) group", "value": "No notable difference"}, {"measurement": "Any bleeding events (adjudicated), incidence", "setting": "[1]; [6]", "value": 20.0, "unit": "%"}, {"measurement": "Any bleeding events (adjudicated), number of subjects with events", "setting": "[1]; [6]", "value": 10}, {"measurement": "Clinically relevant non-major bleeding events, incidence", "setting": "[1]; [6]", "value": 0, "unit": "%"}, {"measurement": "Clinically relevant non-major bleeding events, number of subjects with events", "setting": "[1]; [6]", "value": 0}, {"measurement": "Major bleeding events, incidence", "setting": "[1]; [6]", "value": 0.0, "unit": "%"}, {"measurement": "Major bleeding events, number of subjects with events", "setting": "[1]; [6]", "value": 0}, {"measurement": "Relation of the serious adverse events to the study drug", "setting": "[1]; all serious adverse events were reported in the SRI 15-mg group", "value": "considered unrelated to the study drug"}, {"measurement": "Deaths", "setting": "[1]; any of the treatment groups", "value": "No deaths were reported"}, {"measurement": "Adjudicated major bleeding events", "setting": "[1]; [7]", "value": "No adjudicated major bleeding events occurred"}, {"measurement": "Thromboembolic events (cerebral infarction and systemic embolism)", "setting": "[1]; [7]", "value": "No cerebral infarction or systemic embolism occurred"}, {"measurement": "Efficacy, safety and composite primary endpoint comprising ACM compared with warfarin", "setting": "[2]; 15 mg dose regimen of edoxaban, subgroup CLCR <30 mL/min", "value": "noninferior to warfarin"}, {"measurement": "Prevention of stroke or systemic embolism compared with warfarin", "setting": "[2]; both once-daily regimens of edoxaban", "value": "noninferior to warfarin"}, {"measurement": "Hazard ratio vs warfarin, death from cardiovascular causes", "setting": "[2]; high-dose edoxaban", "value": 0.86}, {"measurement": "Hazard ratio vs warfarin, key secondary end point", "setting": "[2]; high-dose edoxaban", "value": 0.87}, {"measurement": "Hazard ratio vs warfarin, major bleeding", "setting": "[2]; high-dose edoxaban", "value": 0.80}, {"measurement": "Hazard ratio vs warfarin, primary end point during treatment", "setting": "[2]; high-dose edoxaban", "value": 0.79}, {"measurement": "Hazard ratio vs warfarin, primary end point, intention-to-treat analysis", "setting": "[2]; high-dose edoxaban", "value": 0.87}, {"measurement": "Annualized rate of death from cardiovascular causes", "setting": "[2]; [8]", "value": 2.74, "unit": "%"}, {"measurement": "Annualized rate of major bleeding", "setting": "[2]; [8]", "value": 2.75, "unit": "%"}, {"measurement": "Annualized rate of the primary end point (stroke or systemic embolism) during treatment", "setting": "[2]; [8]", "value": 1.18, "unit": "%"}, {"measurement": "Rate of the key secondary end point (composite of stroke, systemic embolism, or death from cardiovascular causes)", "setting": "[2]; [8]", "value": 3.85, "unit": "%"}, {"measurement": "Hazard ratio vs warfarin, death from cardiovascular causes", "setting": "[2]; low-dose edoxaban", "value": 0.85}, {"measurement": "Hazard ratio vs warfarin, key secondary end point", "setting": "[2]; low-dose edoxaban", "value": 0.95}, {"measurement": "Hazard ratio vs warfarin, major bleeding", "setting": "[2]; low-dose edoxaban", "value": 0.47}, {"measurement": "Hazard ratio vs warfarin, primary end point during treatment", "setting": "[2]; low-dose edoxaban", "value": 1.07}, {"measurement": "Hazard ratio vs warfarin, primary end point, intention-to-treat analysis", "setting": "[2]; low-dose edoxaban", "value": 1.13}, {"measurement": "Annualized rate of death from cardiovascular causes", "setting": "[2]; [9]", "value": 2.71, "unit": "%"}, {"measurement": "Annualized rate of major bleeding", "setting": "[2]; [9]", "value": 1.61, "unit": "%"}, {"measurement": "Annualized rate of the primary end point (stroke or systemic embolism) during treatment", "setting": "[2]; [9]", "value": 1.61, "unit": "%"}, {"measurement": "Rate of the key secondary end point (composite of stroke, systemic embolism, or death from cardiovascular causes)", "setting": "[2]; [9]", "value": 4.23, "unit": "%"}, {"measurement": "ACM (all cause mortality): # of events", "setting": "[2]; [10]", "value": 12}, {"measurement": "ACM (all cause mortality): Event Rate", "setting": "[2]; [10]", "value": 1.95, "unit": "%/yr"}, {"measurement": "Disabling Stroke: # of events", "setting": "[2]; [10]", "value": 3}, {"measurement": "Disabling Stroke: Event Rate", "setting": "[2]; [10]", "value": 0.49, "unit": "%/yr"}, {"measurement": "Fatal Bleed: # of events", "setting": "[2]; [10]", "value": 2}, {"measurement": "Fatal Bleed: Event Rate", "setting": "[2]; [10]", "value": 0.33, "unit": "%/yr"}, {"measurement": "Fatal SEE: # of events", "setting": "[2]; [10]", "value": 0}, {"measurement": "Fatal SEE: Event Rate", "setting": "[2]; [10]", "value": 0.00, "unit": "%/yr"}, {"measurement": "Fatal Stroke: # of events", "setting": "[2]; [10]", "value": 2}, {"measurement": "Fatal Stroke: Event Rate", "setting": "[2]; [10]", "value": 0.33, "unit": "%/yr"}, {"measurement": "First Disabling or Fatal Stroke, Fatal SEE, LT or Fatal Bleed, or ACM: # of events", "setting": "[2]; [10]", "value": 19}, {"measurement": "First Disabling or Fatal Stroke, Fatal SEE, LT or Fatal Bleed, or ACM: Event Rate", "setting": "[2]; [10]", "value": 3.10, "unit": "%/yr"}, {"measurement": "First Stroke, SEE or TIA: # of events", "setting": "[2]; [10]", "value": 15}, {"measurement": "First Stroke, SEE or TIA: Event Rate", "setting": "[2]; [10]", "value": 2.48, "unit": "%/yr"}, {"measurement": "First Stroke, SEE, Major Bleed, or ACM: # of events", "setting": "[2]; [10]", "value": 39}, {"measurement": "First Stroke, SEE, Major Bleed, or ACM: Event Rate", "setting": "[2]; [10]", "value": 6.46, "unit": "%/yr"}, {"measurement": "LT Bleed (life threatening): # of events", "setting": "[2]; [10]", "value": 2}, {"measurement": "LT Bleed (life threatening): Event Rate", "setting": "[2]; [10]", "value": 0.33, "unit": "%/yr"}, {"measurement": "AUC(0-t)", "setting": "[3]; [11]", "value": 440, "unit": "ng·h/mL"}, {"measurement": "AUC(0-t)", "setting": "[3]; [12]", "value": 569, "unit": "ng·h/mL"}, {"measurement": "AUC(0-t)", "setting": "[3]; [13]", "value": 726, "unit": "ng·h/mL"}, {"measurement": "AUC(0-t)", "setting": "[3]; peritoneal dialysis patient", "value": 770, "unit": "ng·h/mL"}, {"measurement": "AUC(0-t)", "setting": "[3]; [14]", "value": 661, "unit": "ng·h/mL"}, {"measurement": "concentration at 24 h", "setting": "[3]; [11]", "value": 2.34, "unit": "ng/mL"}, {"measurement": "concentration at 24 h", "setting": "[3]; [12]", "value": 3.44, "unit": "ng/mL"}, {"measurement": "concentration at 24 h", "setting": "[3]; [13]", "value": 5.9, "unit": "ng/mL"}, {"measurement": "concentration at 24 h", "setting": "[3]; peritoneal dialysis patient", "value": 8.24, "unit": "ng/mL"}, {"measurement": "concentration at 24 h", "setting": "[3]; [14]", "value": 6.88, "unit": "ng/mL"}, {"measurement": "CL renal", "setting": "[3]; [11]", "value": 197, "unit": "mL/min"}, {"measurement": "CL renal", "setting": "[3]; [12]", "value": 121, "unit": "mL/min"}, {"measurement": "CL renal", "setting": "[3]; [13]", "value": 67.4, "unit": "mL/min"}, {"measurement": "CL renal", "setting": "[3]; [14]", "value": 32.5, "unit": "mL/min"}, {"measurement": "Cmax", "setting": "[3]; Cmax Geometric least squares mean, healthy adult (CLCR > 80 mL/min)", "value": 88.8, "unit": "ng/mL"}]}]}
